# Assay results from ChEMBL document CHEMBL2146470, “Novel Carboxamide-Based Allosteric MEK Inhibitors: Discovery and Optimization Efforts toward XL518 (GDC-0973)” (ACS Med Chem Lett, 2012).
# What was measured:
# [1] = biological target: Dual specificity mitogen-activated protein kinase kinase 1 (Homo sapiens, UniProt Q02750)
# Description: Inhibition of MEK1-mediated ERK2 T202/Y204 phosphorylation using biotinylated MBP as substrate preincubated for 30 mins measured after 100 mins by cRAF-MEK-ERK enzyme coupled assay
# [2] = biological target: Dual specificity mitogen-activated protein kinase kinase; MEK1/2 (Homo sapiens, UniProt P36507+Q02750)
# Description: Inhibition of MEK-mediated ERK T202/Y204 phosphorylation in human MDA-MB-231T cells after 1 hr by immunoblotting
# [3] = Clearance in Sprague-Dawley rat at 5 mg/kg, po; format: ADME, organism-based; parameters: dose 5 mg/kg, route oral; conditions: in vivo
# [4] = Drug metabolism in rat liver microsomes at 15 uM after 30 mins; format: ADME, Microsome; conditions: read-out: Drug metabolism
# [5] = Half life in Sprague-Dawley rat at 5 mg/kg, po; format: ADME, organism-based; parameters: dose 5 mg/kg, route oral; conditions: in vivo
# [6] = Drug metabolism in human liver microsomes at 15 uM after 30 mins; format: ADME, Microsome; conditions: read-out: Drug metabolism
# [7] = system: Rattus norvegicus; experiment: Dose normalised AUC (0 to t) in Sprague-Dawley rat at 5 mg/kg, po; format: ADME, organism-based; parameters: dose 5 mg/kg, route oral; conditions: in vivo
# [8] = Apparent permeability across MDCK cells; format: ADME, cell-based, Canis lupus familiaris; conditions: dog
# [9] = Oral bioavailability in Sprague-Dawley rat at 5 mg/kg; format: ADME, organism-based; conditions: in vivo
# Chain of Dual specificity mitogen-activated protein kinase kinase 1 (Q02750 whole entry): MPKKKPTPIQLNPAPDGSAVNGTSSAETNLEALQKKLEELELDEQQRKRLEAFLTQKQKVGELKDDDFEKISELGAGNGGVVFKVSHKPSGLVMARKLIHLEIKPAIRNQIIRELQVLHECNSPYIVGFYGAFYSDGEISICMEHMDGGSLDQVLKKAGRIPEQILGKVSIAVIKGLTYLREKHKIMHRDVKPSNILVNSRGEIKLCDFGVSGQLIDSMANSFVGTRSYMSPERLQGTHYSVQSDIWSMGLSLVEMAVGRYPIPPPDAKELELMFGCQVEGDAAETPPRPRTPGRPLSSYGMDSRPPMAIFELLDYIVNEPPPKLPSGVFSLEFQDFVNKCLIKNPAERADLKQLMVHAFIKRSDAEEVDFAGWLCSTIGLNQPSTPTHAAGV
Compound,IC50 [1] [nM],IC50 [2] [nM],CL/F [3] [mL/min/kg],"metabolised at 0.5 h, 15 µM [4] [%]",half-life [5] [h],"metabolised at 0.5 h, 15 µM [6] [%]",AUCt/dose [7] [µM·h/mg/kg],Papp [8] [×10⁻⁶ cm/s],bioavailability [9] [%]
O=C(c1ccc(F)c(F)c1Nc1ccc(I)cc1F)N1CC(O)(CN2CCCC2)C1,7.6,50,–,–,–,–,–,–,–
CCNCC1(O)CN(C(=O)c2ccc(F)c(F)c2Nc2ccc(I)cc2F)C1,–,–,35,31.5,5.4,46.3,0.85,20.7,101
CC(C)NCC1(O)CN(C(=O)c2ccc(F)c(F)c2Nc2ccc(I)cc2F)C1,–,–,99.3,40.5,4.9,35.8,0.25,21,86
O=C(c1ccc(F)c(F)c1Nc1ccc(I)cc1F)N1CC(O)C1,–,–,139,80.1,1.5,30.8,0.05,39.9,19
C[C@H](N)C1(O)CN(C(=O)c2ccc(F)c(F)c2Nc2ccc(I)cc2F)C1,5.2,46,13.3,-4.5,11.4,2.6,1.03,9.9,58
O=C(NCCC(O)CO)c1ccc(F)c(F)c1Nc1ccc(I)cc1F (stereo unspecified),801,128,–,–,–,–,–,–,–
CN(C)CC1(O)CN(C(=O)c2ccc(F)c(F)c2Nc2ccc(I)cc2F)C1,5.1,14,–,–,–,–,–,–,–
